Measurements reported in publication PMC7128415 (Journal of Clinical Virology, 2004).
≈ marks a conversion by molar mass, not a printed value. Read-outs that look alike come from different tables or passages of the source.

Assays:
[1] = system: SARS coronavirus
[2] = system: genital herpes; conditions: in vivo; cited from earlier work
[3] = system: CMV; conditions: human, in vivo; cited from earlier work
[4] = system: rhinovirus; conditions: in vivo; cited from earlier work
[5] = system: rhinovirus, coronavirus, and respiratory syncytial virus; conditions: in vivo; cited from earlier work
[6] = system: SARS coronavirus; type: cell-based
[7] = system: SARS-associated virus; conditions: cited from earlier work
[8] = in vitro; conditions: rhesus monkey
[9] = in vivo, cited from earlier work
[10] = system: SARS coronavirus; experiment: microbe, parasite or virus in culture; conditions: Severe acute respiratory syndrome coronavirus, FRhK-4, 48 h, read-out: EC50 at 48 h
[11] = system: SARS coronavirus; experiment: microbe, parasite or virus in culture; type: cell-based; conditions: Severe acute respiratory syndrome coronavirus, Vero, read-out: EC50 (plaque reduction assay)
[12] = human, in vivo, po
[13] = system: HIV-1; conditions: cited from earlier work
[14] = system: HIV-1 reverse transcriptase; conditions: cited from earlier work
[15] = system: various viruses; conditions: cited from earlier work

C[C@H]1[C@H](OC(=O)CCC(=O)O)O[C@@H]2O[C@@]3(C)CC[C@H]4[C@H](C)CC[C@@H]1[C@@]24OO3 [artesunate]
inhibitory activities in initial screening [1]: not detectable

interferon-alpha
reduction in symptoms or lesion duration of genital herpes [2]: did not produce a consistent reduction | preventing CMV infections or treating CMV pneumonia [3]: not effective | protection against rhinovirus-induced common cold [4]: protective | protection against experimental human infection [5]: protect

CC1(C)[C@@H](O[C@H]2O[C@H](C(=O)O)[C@@H](O)[C@H](O)[C@H]2O[C@@H]2O[C@H](C(=O)O)[C@@H](O)[C@H](O)[C@H]2O)CC[C@]2(C)[C@H]3C(=O)C=C4[C@@H]5C[C@@](C)(C(=O)O)CC[C@]5(C)CC[C@@]4(C)[C@]3(C)CC[C@@H]12 [Glycyrrhizin, glycyrrhizin]
activity in Vero-E6 cell line compared with fRhK-4 [6]: more active | antiviral activity [1]: showed antiviral activity | inhibitory activities in initial screening [1]: not detectable | Antiviral effect [7]: Inhibition of SARS-associated virus | activity in Vero-E6 cell lines [7]: reported to be active | antiviral activity against SARS coronavirus [7]: significant antiviral activity | CC50 [8]: > 400 µg/mL | Half life (in humans) ([9]; human): ∼10 h | Serum level (after intravenous administration), Cmax [9]: Cmax = 80 μg/ml (200 mg per person) | EC50 [10]: > 400 µg/mL

Nc1nc(NC2CC2)c2ncn([C@H]3C=C[C@@H](CO)C3)c2n1 [abacavir]
inhibitory activities in initial screening [1]: did not reveal inhibitory activities

Cc1cccc(C)c1OCC(=O)N[C@@H](Cc1ccccc1)[C@@H](O)C[C@H](Cc1ccccc1)NC(=O)[C@H](C(C)C)N1CCCNC1=O [Lopinavir, lopinavir]
activity in Vero-E6 cell line compared with fRhK-4 [6]: less active | EC50 [11]: 6 µg/mL (≈ 9.54 µM) | antiviral activities [1]: detectable antiviral activities | antiviral activity [1]: showed antiviral activity | inhibitory activities by neutralization tests [1]: detectable inhibitory activities | CC50 [8]: 32 µg/mL (≈ 50.9 µM) | EC50 [10]: 1 to 4 µg/mL (≈ 1.59 to 6.36 µM)

CC(N)C12CC3CC(CC(C3)C1)C2 (stereo not shown) [Rimantadine, rimantadine]
activity in Vero-E6 cell line compared with fRhK-4 [6]: more active | EC50 [11]: 7 µg/mL (≈ 39 µM) | EC50 at 48 h [1]: 16 µg/mL (≈ 89.2 µM) | antiviral activities [1]: detectable antiviral activities | antiviral activity [1]: showed antiviral activity | inhibitory activities by neutralization tests [1]: detectable inhibitory activities | CC50 [8]: 64 µg/mL (≈ 357 µM) | EC50 [10]: 8 to 16 µg/mL (≈ 44.6 to 89.2 µM)

O=C(O)[C@H]1O[C@@H](Oc2cc3oc(-c4ccccc4)cc(=O)c3c(O)c2O)[C@H](O)[C@@H](O)[C@@H]1O [Baicalin, baicalin]
activity in Vero-E6 cell line compared with fRhK-4 [6]: less active | EC50 [11]: 11 µg/mL (≈ 24.6 µM) | EC50 at 48 h [1]: 12.5 µg/mL (≈ 28 µM) | SI = CC50/EC50 at 48 h [1]: >4 to 8 | antiviral activities [1]: detectable antiviral activities | antiviral activity [1]: showed antiviral activity | inhibitory activities by neutralization tests [1]: detectable inhibitory activities | serum concentration [12]: 470 ng/mL | Antiviral effect [13]: Inhibition of HIV-1 | inhibition of HIV-1 [13]: shown to inhibit HIV-1 | inhibition of HIV-1 reverse transcriptase [14]: known to inhibit HIV-1 reverse transcriptase | CC50 [8]: > 100 µg/mL | Serum level (after oral administration), Cmax ([9]; human, po): Cmax = 60 ng/ml (189.8 mg per person, in human). The amount (i.e., 189.8 mg per person) used for the experiment is very low | Half life (in humans) ([9]; human): ∼3 h | Serum level (after intravenous administration), Cmax [9]: Cmax = 74 μg/ml (360 mg per person) | EC50 [10]: 12.5 to 25 µg/mL (≈ 28 to 56 µM)

NC(=O)c1ncn([C@@H]2O[C@H](CO)[C@@H](O)[C@H]2O)n1 [Ribavirin, ribavirin]
activity in Vero-E6 cell line compared with fRhK-4 [6]: less active | EC50 [11]: 50 µg/mL (≈ 205 µM) | SI = CC50/EC50 at 48 h [1]: 5 to >80 | antiviral activities [1]: detectable antiviral activities | antiviral activity [1]: showed antiviral activity | inhibitory activities by neutralization tests [1]: detectable inhibitory activities | CC50 [8]: > 1000 µg/mL

Cc1cn([C@H]2C=C[C@@H](CO)O2)c(=O)[nH]c1=O [stavudine]
inhibitory activities in initial screening [1]: did not reveal inhibitory activities

Nc1nc(O)c2ncn(COC(CO)CO)c2n1 [ganciclovir]
inhibitory activities in initial screening [1]: did not reveal inhibitory activities

Nc1ccn(C[C@@H](CO)OCP(=O)(O)O)c(=O)n1 [cidofovir]
inhibitory activities in initial screening [1]: did not reveal inhibitory activities

Nc1nc2c(ncn2COCCO)c(=O)[nH]1 [acyclovir]
inhibitory activities in initial screening [1]: did not reveal inhibitory activities

NC12CC3CC(CC(C3)C1)C2 [amantadine]
inhibitory activities in initial screening [1]: did not reveal inhibitory activities

Cc1ccnc2c1NC(=O)c1cccnc1N2C1CC1 [nevirapine]
inhibitory activities in initial screening [1]: did not reveal inhibitory activities

O=C(/C=C/c1ccc(O)c(O)c1)O[C@@H]1C[C@](O)(C(=O)O)C[C@@H](O)[C@H]1O [Chlorogenic acid, chlorogenic acid]
inhibitory activities in initial screening [1]: not detectable | Antiviral effect [15]: Inhibition of various viruses | Serum level (after intravenous administration), Cmax [9]: Cmax = 34 μg/ml (24 mg per person)

CC(C)c1nc(CN(C)C(=O)N[C@H](C(=O)N[C@@H](Cc2ccccc2)C[C@H](O)[C@H](Cc2ccccc2)NC(=O)OCc2cncs2)C(C)C)cs1 [ritonavir]
inhibitory activities in initial screening [1]: did not reveal inhibitory activities

Cc1cn([C@H]2C[C@H](N=[N+]=[N-])[C@@H](CO)O2)c(=O)[nH]c1=O [zidovudine]
inhibitory activities in initial screening [1]: did not reveal inhibitory activities

O=C(O)P(=O)(O)O [foscarnet]
inhibitory activities in initial screening [1]: did not reveal inhibitory activities

B1: Interferon-gamma: Interferon-gamma, reported in the literature (protein, UniProt P01579 24-161, looked up)
Interferon gamma: QDPYVKEAENLKKYFNAGHSDVADNGTLFLGILKNWKEESDRKIMQSQIVSFYFKLFKNFKDDQSIQKSVETIKEDMNVKFFNSNKKKRDDFEKLTNYSVTDLNVQRKAIHELIQVMAELSPAAKTGKRKRSQMLFRG
antiviral activity against SARS coronavirus [7]: not to possess antiviral activity
